Measured values: patent publication US7763625B2, “Agents for treating migraine” (Kyowa Hakko Kirin Co., Ltd., priority 2004, dated 2010)

System: basilar (cerebral) arteries
Assay: Contractile effects on basilar arteries (suppression of adenosine-induced relaxation of isolated cerebral artery rings)
Design: species or system Dogs
Conditions: isolated dog basilar artery rings relaxed with adenosine; test compound added cumulatively; in comparison with the Vehicle group
Source text: Dogs were anesthetized by intravenous injection of sodium pentobarbital, after which they were euthanized by exsanguination and subjected to craniotomy.
The basilar (cerebral) arteries were removed and cut into rings segments of about 2 mm in width. Each ring segment was fixed with a silk thread to a needle cut into about 2 mm in length. The needle was attached to a holder provided in an Easy-Magnus System (Model no. UC-2; IWASHIYA KISHIMOTO MEDICAL INSTRUMENTS); the ring segments were immersed in a nutritive solution and allowed to stabilize at a resting tension of 0.2 g (1.96 mN) for more than 60 minutes. Into the organ bath (2 mL) of the Easy-Magnus System, the cerebral artery was relaxed by application of 2 μL of 10 mmol/L adenosine aqueous solution. After that, the test compound was added cumulatively; 1 μL of 0.2 mmol/L dimethylsulfoxide solution, 1 μL of 0.4 mmol/L dimethylsulfoxide solution, and 0.7 μL of 2 mmol/L dimethylsulfoxide solution in order (Test compound-added group). Separately, in the same manner as in the Test compound-added group, dimethylsulfoxide alone was cumulatively added in place of the test compound (Vehicle group). The contraction of the cerebral artery was recorded on a recorder (Yokogawa) from an isometric force transducer (Nihon Kohden) connected to the holder, to which the ring was fixed, through a strain-pressure amplifier (Nihon Kohden). […]

## CCn1c(=O)c2c(nc(/C=C/c3ccc(OC)c(OC)c3)n2C)n(CC)c1=O [Compound 2]
  suppression of the adenosine-induced relaxation of the cerebral artery: dose-dependently and significantly suppressed
